For assay [1], the system named is Qoi resistant isolate of Septoria tritici. The experiment in a line: Microtest: activity against leaf blotch on wheat caused by Septoria tritici (SEPTTR), Qoi resistant isolate. Type of assay: cell-based. The note with it: single compound, 7 days after inoculation. The source says:
(§1) The active compounds were formulated separately as a stock solution having a concentration of 10000 ppm in dimethyl sulfoxide.
2. Activity against leaf blotch on wheat caused by Septoria tritici (SEPTTR) The stock solutions were mixed according to the ratio, pipetted onto a micro titer plate (MTP) and diluted with water to the stated concentrations. A spore suspension of a Qoi resistant isolate of Septoria tritici in an aqueous biomalt or yeast-bactopeptone-glycerine or DOB solution was then added. The plates were placed in a water vapor-saturated chamber at a temperature of 18° C. Using an absorption photometer, the MTPs were measured at 405 nm 7 days after the inoculation.
(§2) The measured parameters were compared to the growth of the active compound-free control variant (100%) and the fungus-free blank value to determine the relative growth in % of the pathogens in the respective active compounds.
(§3) These percentages were converted into efficacies.
(§4) An efficacy of 0 means that the growth level of the pathogens corresponds to that of the untreated control; an efficacy of 100 means that the pathogens were not growing.
(§5) The expected efficacies of active compound mixtures were determined using Colby's formula [R. S. Colby, “Calculating synergistic and antagonistic responses of herbicide combinations”, Weeds 15, 20-22 (1967)] and compared with the observed efficacies.

A further assay relates to Microdochium nivale. The assay is described as follows: Microtest: activity against Microdochium nivale (MONGNI). The format is cell-based. The note with it: single compound, 7 days after inoculation. As for the experimental part:
as §1
1. Activity against Microdochium nivale (MONGNI) The stock solutions were mixed according to the ratio, pipetted onto a micro titer plate (MTP) and diluted with water to the stated concentrations. A spore suspension of Microdochium nivale in an aqueous biomalt or yeast-bactopeptone-glycerine or DOB solution was then added. The plates were placed in a water vapor-saturated chamber at a temperature of 18° C. Using an absorption photometer, the MTPs were measured at 405 nm 7 days after the inoculation.
as §2, §3, §4, §5

Drawing on patent publication US20220125053A1, “Pesticidal Mixtures” (BASF SE, priority 2019, published 2022), this text covers Observed efficacy for two compounds.

For `Cc1cccc(-n2nnn(C)c2=O)c1COc1ccn(-c2ccc(Cl)cc2)n1` [Metyltetraprol, 1-[2-[[1-(4-chlorophenyl)pyrazol-3-yl]oxymethyl]-3-methyl-phenyl]-4-methyl-tetrazol-5-one], the values for the Observed efficacy (in assay [1] (0.016 ppm); in assay [1] (0.063 ppm); in the assay on Microdochium nivale (0.016 ppm)) were 0, 1 and 32, respectively.

With `CC(C)c1ccc(Cl)cc1CN(C(=O)c1c(C(F)F)nn(C)c1F)C1CC1` [Isoflucypram, N-(5-chloro-2-isopropylbenzyl)-N-cyclopropyl-3-(difluoromethyl)-5-fluoro-1-methyl-1H-pyrazole-4-carboxamide], the Observed efficacy turned out to be 0 in assay [1] (0.004 ppm), 5 in assay [1] (0.016 ppm), 34 in assay [1] (0.063 ppm) and 40 in the assay on Microdochium nivale (0.063 ppm).
